# In patent US12492236B2, “Fusion proteins for the treatment of cardiometabolic diseases” (Shattuck Labs, Inc., priority 2022, dated 2025):
# T1: recombinant human Activin A (Homo sapiens, UniProt P08476)
# T1 sequence (P08476 311-426): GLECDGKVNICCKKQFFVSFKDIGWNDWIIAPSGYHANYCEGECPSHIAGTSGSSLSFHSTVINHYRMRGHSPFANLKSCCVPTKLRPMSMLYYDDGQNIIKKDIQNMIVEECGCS
# T2: recombinant human GDF-8 (Homo sapiens, UniProt O14793)
# T2 sequence (O14793 267-375): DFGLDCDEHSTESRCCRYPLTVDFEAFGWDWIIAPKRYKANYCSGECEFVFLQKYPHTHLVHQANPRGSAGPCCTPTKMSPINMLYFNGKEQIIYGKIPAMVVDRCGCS
# T3: GIP receptor (GIPR) (Rattus norvegicus, UniProt P43219)
# T3 construct: endogenous in cells; host or cells: rat INS-1 insulinoma cells (with cAMP-luciferase reporter / pGloSensor-22F biosensor)
# T3 sequence (P43219 19-455): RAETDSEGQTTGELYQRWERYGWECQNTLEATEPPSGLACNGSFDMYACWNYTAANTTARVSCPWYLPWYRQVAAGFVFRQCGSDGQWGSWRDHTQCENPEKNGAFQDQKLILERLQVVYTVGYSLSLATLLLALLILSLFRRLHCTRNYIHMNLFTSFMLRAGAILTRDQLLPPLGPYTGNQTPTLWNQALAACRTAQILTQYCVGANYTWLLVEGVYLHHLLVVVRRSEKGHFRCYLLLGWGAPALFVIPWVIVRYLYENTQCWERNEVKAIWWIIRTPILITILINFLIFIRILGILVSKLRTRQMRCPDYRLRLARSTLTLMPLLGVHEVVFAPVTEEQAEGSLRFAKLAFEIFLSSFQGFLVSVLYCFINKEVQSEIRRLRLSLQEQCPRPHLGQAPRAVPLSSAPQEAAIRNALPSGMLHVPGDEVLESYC
# T4: glucose-dependent insulinotropic polypeptide receptor (GIPR) (Homo sapiens, UniProt P48546)
# T4 construct: host or cells: HEK293T (GeneBLAzer GIPR-CRE-bla)
# T4 sequence (P48546 22-466): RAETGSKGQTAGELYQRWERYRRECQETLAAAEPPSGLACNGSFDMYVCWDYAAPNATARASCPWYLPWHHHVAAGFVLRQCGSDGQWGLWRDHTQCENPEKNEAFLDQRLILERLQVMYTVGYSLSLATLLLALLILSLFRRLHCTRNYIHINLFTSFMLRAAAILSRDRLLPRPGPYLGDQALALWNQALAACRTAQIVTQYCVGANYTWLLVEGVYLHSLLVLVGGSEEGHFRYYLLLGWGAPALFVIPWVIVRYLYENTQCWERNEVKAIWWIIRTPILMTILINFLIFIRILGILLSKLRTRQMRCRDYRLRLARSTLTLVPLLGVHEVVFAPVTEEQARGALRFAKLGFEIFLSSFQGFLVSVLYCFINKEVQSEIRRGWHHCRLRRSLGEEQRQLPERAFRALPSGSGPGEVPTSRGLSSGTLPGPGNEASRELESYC
# B1: GIP(Ag)-Fc-FGF19: GIP fused to FGF19 via a hinge-CH2-CH3 Fc domain derived from IgG1; SEQ ID NO: 88 (protein)
# chain: YAEGTFISDYSIAMDKIHQQDFVNWLLAQKGKKNDWKHNITQPCPAPEAAGGPSVFLFPPKPKDTLMISRTPEVTCVVVDVSHEDPEVKFNWYVDGVEVHNAKTKPREEQYNSTYRVVSVLTVLHQDWLNGKEYKCKVSNKALPAPIEKTISKAKGQPREPQVYTLPPSRDELTKNQVSLTCLVKGFYPSDIAVEWESNGQPENNYKTTPPVLDSDGSFFLYSKLTVDKSRWQQGNVFSCSVMHEALHNHYTQKSLSLSPGKIEGRMDRDSSPLVHYGWGDPIRLRHLYTSGPHGLSSCFLRIRADGVVDCARGQSAHSLLEIKAVALRTVAIKGVHSVRYLCMGADGKMQGLLQYSEEDCAFEEEIRPDGYNVYRSEKHRLPVSLSSAKQRQLYKNRGFLPLSHFLPMLPMVPEEPEDLRGHLESDMFSSPLETDSMDPFGLVTGLEAVRSPSFEK
# Experiments:
# [1] = molecular target: T1, recombinant human Activin A; assay: MSD platform-based binding assay on plate-bound Activin A; settings: MSD signal, serial dilutions
# Method: (§1) The binding by a recombinant human ACVR2B-Fc fusion protein to activin A (also known as Inhibin beta A) was characterized using a Meso Scale Discovery (MSD) platform-based assay. Briefly, Activin A was coated on a plate and 8× serial dilutions of the purified recombinant human ACVR2B-Fc fusion protein were also added in a series of wells. The protein captured by the plate-bound Activin A was detected using an anti-human Fc antibody and a SULFO-TAG conjugated secondary antibody.
# (§2) The binding to Activin A by the GLP-1-Fc-ACVR2B fusion protein produced using the mmRNA constructs was investigated using a Meso Scale Discovery (MSD) platform-based assay. Briefly, HEK293T cells were transfected with each mRNA construct using lipofectamine 2000, and culture supernatants were collected after 48 hours. Activin A was coated on a plate, and 3× serial dilutions of the culture supernatants were added to the plate for capture by the plate-bound Activin A. The protein captured by the plate-bound Activin A was detected using an anti-human Fc antibody and a SULFO-TAG conjugated secondary antibody. The MSD signals generated by the culture supernatants of HEK293T cells transfected with different mmRNA constructs were plotted as a line graph.
# recombinant human GDF-8 = molecular target: T2, recombinant human GDF-8; assay: MSD platform-based binding assay on plate-bound GDF-8; settings: MSD signal, serial dilutions
# Method: as §1, with “GDF-8” for “activin A”, “myostatin)” for “Inhibin beta A)”, “GDF-8” for “Activin A”
# as §2, with “GDF-8” for “Activin A”, “GDF-8.” for “Activin A.”
# [2] = tested on: HFD-fed mice (Male C57BL/6); assay: longer-term obesity model in HFD-fed mice
# Description: Briefly, mice (Male C57BL/6) were of approximately 13 weeks of age were housed 4 mice per cage. Following 2 weeks of acclimation, mice were introduced to 60% kcal HFD (Research Diets D12492). Cages were changed once, then changed once a week. Weekly body weights and non-fasted blood glucose were collected. […] The longer-term obesity model assesses a number of end points associated with obesity related type 2 diabetes (FIG. 6A).
# Mice (Male C57BL/6) were of approximately 13 weeks of age were housed 4 mice per cage. Following 2 weeks of acclimatation, mice were introduced to 60% kcal HFD (Research Diets D12492). Cages were changed once, then changed once a week. Weekly body weights and non-fasted blood glucose were collected.
# Mice were injected by tail vein with vehicle or the drugs on Day 0, Day 4, Day 7, Day 10, Day 14, and Day 18. Body weights were measured every 2 days. Change in body weight was calculated and plotted.
# Cumulative food intake was measured between day 0 and 3, between day 4 and 7, between day 7 and day 11, and between day 11 and day 14, and represented as average daily food intake. For food consumption, remaining food was weighed on days 3, 8, and 15, and subtracted from the starting weight. This value was then normalized to the number of mice in the cage, and the number of days the mice had access to the food prior to weighing.
# Blood glucose levels were measured on Days 0, 1, 10 and 15 and plotted.
# On day 19 during terminal necropsy, liver and subcutaneous white adipose tissue were recovered weighed from treated animals.
# To further analyze the changes in liver, histopathological analysis was conducted. Briefly, the liver tissue was stained with hematoxylin and eosin (H&E) and evaluated using standard techniques.
# [3] = tested on: rat insulinoma INS-1 cells; assay: in vitro glucose-stimulated insulin secretion (GSIS) in INS-1 cells; format: cell-based; settings: 1 hour glucose, then 2 hour incubation, ELISA, FIG. 4B
# Description: X is a known inducer of GSIS.
# [4] = tested on: HFD-fed mice (Male C57BL/6); assay: glucose tolerance test (GTT) model in HFD-fed mice; format: in vivo
# Method: Cages were changed once, then changed once a week.
# The mice administered the above treatment by i.v. injections. The mice were then fasted for 18 hours and administered a dose of 2 g/kg glucose by i.v. injections. Blood samples were drawn by tail clip bleeding at 15, 30 and 60 minutes post dosing and cardiac bleeding was used at 2 hours after glucose injection as end-point.
# GIP receptor (GIPR) = molecular target: T3, GIP receptor (GIPR); assay: cAMP-Glo assay in rat insulinoma INS-1 cells harboring a cAMP-luciferase reporter gene; format: cell-based; settings: 1 hour glucose, then 2 hour incubation, FIG. 4A
# Description: Rat insulinoma INS-1 cells harboring a cAMP-luciferase reporter gene were used to study the activation of GIPR. Without wishing to be bound by theory, the activation of GIPR leads to temporary depletion of ATP because of consumption of ATP in cyclization reaction to produce cAMP as well as by phosphorylation by protein kinase A of its substrate. Without wishing to be bound by theory, the temporary depletion of ATP leads to an inhibition of luciferase activity, which needs ATP as a substrate.
# [5] = molecular target: T4, glucose-dependent insulinotropic polypeptide receptor (GIPR); assay: GeneBLAzer GIPR-CRE-bla HEK293T cell-based reporter assay; settings: increasing amounts, FIG. 3B
# Method: This assay is diagrammatically represented in FIG. 3A. […] In the presence of the β-lactamase LiveBLAzer™ substrate, cells expressing β-lactamase fluoresce blue (460 nm), while those not expressing β-lactamase fluoresce green (530 nm); higher 460/530 ratio indicates the activation of GIPR.
# Briefly, GeneBLAzer® GIPR-CRE-bla HEK293T cells were added to wells of black-wall assay plates. […] To each well, LiverBLAzer-FRET B/G substrate mixture was added. The plate was covered with plate sealer and incubated at room temperature for 2 hours in the dark. Fluorescence emission was measured on SpectraMax plate reader at 460 nm and 530 nm with excitation set to 409 nm. After subtraction of background, average value at 460 nm (blue color) was divided by average value at 530 nm (green color) to obtain the 460/530 ratio.
Molecule,binding to Activin A [1],binding to GDF-8 (recombinant human GDF-8),"blood glucose levels ([2]; Days 0, 1, 10 and 15, compared to the untreated mice, FIG. 8E)",weights of individual mice ([2]; FIG. 8B),"liver histology: hepatocellular ballooning and steatosis ([2]; H&E, FIG. 8J)","plasma insulin levels on Day 1 ([2]; between 15 and 120 minutes after treatment, one way ANOVA p<0.05, FIG. 8C left panel)","average daily food intake ([2]; compared to the untreated mice, FIG. 8D)","liver weight: livers of PBS control mice versus treated mice ([2]; day 19 necropsy, FIG. 8G)","subcutaneous white adipose tissue (sWAT) weight ([2]; day 19 necropsy, versus PBS control, FIG. 8H)",tolerability ([2]; obesity model),"plasma insulin levels on Day 15 ([2]; one way ANOVA p<0.0001, FIG. 8C right panel)","decrease in liver collagen staining relative to tirzepatide or dulaglutide ([2]; picrosirius red, FIG. 8I)","liver collagen staining (fibrosis) ([2]; picrosirius red, FIG. 8I)","change in body weight ([2]; tail vein dosing Day 0, 4, 7, 10, 14, 18, FIG. 8A)",insulin in culture supernatant (GSIS) [3],serum insulin time course following glucose administration ([4]; FIG. 7C),"serum glucose time course following glucose administration ([4]; i.v. treatment, 18 hours fast, 2 g/kg glucose, versus PBS control (200 to about 800 mg/dl), FIG. 7A)",glucose tolerance ([4]; summary of GTT model),"inhibition of luciferase (GIPR activation, cAMP accumulation) (GIP receptor (GIPR))","460/530 ratio, indicative of the activation of GIPR [5]"
GLP-1-Fc-ACVR2B: GLP-1 fused to ACVR2B extracellular domain via IgG1 hinge-CH2-CH3 Fc domain; SEQ ID NO: 154,binds to the human Activin A,binds to the human GDF-8,–,–,–,–,–,–,–,–,–,–,–,–,–,–,–,–,–,–
GLP-1-Fc-GIP(Ag): GLP-1 fused to GIP agonist peptide (amino acids 1-42) via a hinge-CH2-CH3 Fc domain derived from IgG1; SEQ ID NO: 93,–,–,decrease in blood glucose,induced weight loss,a decrease in hepatocellular ballooning and steatosis,rapid decrease in insulin levels,decrease in food intake,much heavier compared to the mice receiving treatments,decreased,well tolerated and no overt toxicities were noted,significant decrease in the levels of insulin,greater decrease in collagen staining,a decrease in collagen staining,progressive weight loss,"stimulated insulin production to a similar, if not greater magnitude than dulaglutide or tirzepatide",rapid induction of insulin,much smaller increase in serum glucose,improved glucose tolerance,–,–
B1,–,–,–,–,–,–,–,–,–,–,–,–,–,–,"stimulated insulin production to a similar, if not greater magnitude than dulaglutide or tirzepatide",–,–,–,dose-dependent and saturable inhibition of luciferase with similar potency,dose-dependent and saturable increase in 460/530 ratio
